# Experiments:
# [1] = test system: LDL-cholesterol; experiment: Serum lipid fractions (LDL-cholesterol) in patients with stable angina before and after treatment; format: in vivo, human
# Protocol: (§1) In addition, 8 patients with stable angina were prospectively treated with atorvastatin (20 mg/day, four weeks).
# In all patients serum was also collected at the time of examination for a determination of the concentrations of CRP and hsCRP (turbidimetric assay, Boehringer Mannheim and Ultrasensitive N Latex CRP Monotest, Behring, respectively) as well as serum lipid-fractions (Boehringer Mannheim).
# Thus, it was prospectively examined whether a short-term treatment with atorvastatin (20 mg/day, four weeks) reduces the EC-apoptosis in patients with stable CAD.
# [2] = test system: circulating apoptotic ECs; experiment: Flow cytometry (FACS) of circulating apoptotic ECs in peripheral blood of patients with stable angina treated prospectively; format: in vivo, human
# Protocol: as §1
# The lysis of erythrocytes in 10 ml peripheral venous heparin blood was performed with the aid of a commercially available solution for lysis (Becton Dickinson, BD). The circulating ECs were then examined by means of 4-channel-FACS (Fluorescence Activated Cell Sorting)-analysis, using a suitably modified protocol according to the method of Mancuso et al. and Monestiroli et al. (Mancuso P., Burlini A., Pruneri G., Goldhirsch A., Martinelli G., Bertolini F. Blood. 2001; 97: 3658-3661; Monestiroli S., Mancuso P., Burlini A., Pruneri G., Dell'Agnola C., Gobbi A., Martinelli G., Bertolini F. Cancer Res. 2001; 61: 4341-4344) (FIG. 1). First, in the representation of the forward/sideward-scatter a regional window was defined, in order to exclude platelets and debris from the further analyses. Amongst the remaining cells, the number of the CD45^+-signals that were identified with a direct perCP-conjugated monoclonal antibody against human CD45 (BD) was quantified, in order to normalise each measured cellular population in view of the total number of the leukocytes in relation to the number of WBCs. In order to specifically detect mature ECs, only CD45^−-cells were analysed further by double staining with antibodies against the EC-specific epitope CD146 (MeI-CAM, MUC18, S-Endo-1; Shih I. M. J Pathol. 1999; 189: 4-11) (monoclonal mouse-antibody, directly FITC-conjugated; Chemicon) and against von Willebrandt-factor (vWF) (rabbit, Oncogene), followed by a PE-conjugated anti-rabbit secondary antibody. Alternatively, human KDR was detected with an anti-KDR-antibody of the mouse (Sigma), followed by a PE-conjugated anti-mouse secondary antibody in addition to vWF. CD45^−/CD146^+/vWF^+ or CD45^−/KDR^+/vWF^+-cells were defined as mature ECs. […]
smiles,measurement,setting,value
CC(C)c1c(C(=O)Nc2ccccc2)c(-c2ccccc2)c(-c2ccc(F)cc2)n1CC[C@@H](O)C[C@@H](O)CC(=O)O [atorvastatin],LDL-cholesterol (mg/dl) post,"[1]; n=8 patients with stable angina, after 20 mg/day for four weeks, pre value 155 ± 16, mean ± SEM",86 ± 13 mg/dL
same,concentration of LDL-cholesterol,"[1]; patients with stable CAD, 20 mg/day, four weeks, p<0.02",significantly reduced
same,EC-apoptosis,"[2]; patients with CAD, four week treatment period",profoundly reduces
same,number of circulating apoptotic ECs,"[2]; patients with stable CAD (SA), n=8, 20 mg/day, four weeks, FIG. 3A",significantly reduced
same,proportion of apoptotic ECs of the total number of circulating ECs,"[2]; patients with stable CAD (SA), n=8, 20 mg/day, four weeks, FIG. 3B",significantly reduced

# Source: patent US20050244897A1, “Endothelial cells as diagnostic instrument in cardiovascular diseases” (priority 2002, published 2005)
